Patent US7723023B2, “Use of intrinsic reporters of cell signaling for high content drug profiling and toxicity screening” (Mount Sinai School of Medicine, priority 2001, dated 2010)
Values joined by “and” are separate entries in the source; they are usually repeats but may differ in a detail not shown here. Identical values can stand only once.

Tested on: GnRHR-expressing LβT2 gonadotrope cell line
Assay: Focused cDNA microarray analysis (FMA) of genes regulated by GnRH in LβT2 cells
Assay type: cell-based, mouse
Method: Cell Culture and Sample Preparation: LβT2 cells were obtained and maintained at 37° C. in 5% CO2 in humidified air in DMEM (Mediatech) containing 10% fetal bovine serum (Gemini). For experiments. 40-50×10^6 cells were seeded in 15 cm dishes. The medium was replaced 21 hours later with DMEM containing 25 mM HEPES (Mediatech) and glutamine. […] The incubation was stopped by aspirating the incubation medium and adding 10 ml of lysis buffer (4M guanidinium thiocyanate, 25 mM sodium citrate, pH 7.0, 0.5% N-lauroyl-sarcosine, and 0.1 M 2-mercaptoethanol). Total RNA was isolated according to the method of Chomczynski and Sacchi (1987) supra. Approximately 400 μg total RNA was obtained from each plate.
Microarray Development: The 956 clones were selected from an NIA 15K library (Tanaka et al. (2000) Proc. Natl. Acad. Sci. USA 97:9127-9132) or purchased from Research Genetics. The gene selection was partially based on literature searches. A large number of genes known to be induced at early time points in other experimental systems were included as well as 67 putative “housekeeping” genes. Plasmids were purified using the Qiaprep 96 Turbo Miniprep kit. Following insert amplification by PCR, products were confirmed by agarose gel electrophoresis and purified with Qiaquick 96 kit (Qiagen). The product was dried, dissolved in 18 μl H2O. 50% DMSO or 3×SSC and spotted (3 hits/feature, 3 features/gene) with a GMS 417 Arrayer (Affymetrix) on CMT-GAPS coated glass slides (Corning). DNA was fixed either by incubating the slide 3.5 hours at 40° C. followed by 10 min at 100° C. or for 2 hours at 85° C. or by UV crosslinking with 90 mJ (Stratalinker, Stratagene). Arrays were stored light-protected at room temperature until use. A Cy5-labeled oligomer complementary to one of the amplification primers was designed to test printing and attachment efficiency (5′-CGTTTTACAACGTCGTGACTGGG-3′) (SEQ ID NO:1). 12% of the cDNAs on the array were confirmed by sequencing, including randomly selected clones on each 96-well plate and all genes that were identified as regulated.
RNA Labeling and Hybridization. 20 μg of total RNA from each sample was labeled with either Cy3 or Cy5 using the Atlas indirect labeling kit (Clontech) as indicated by the manufacturer. Following array prehybridization in 6×SSC, 0.5% SDS, 1% BSA at 42° C. for 45 min, the probe was denatured and hybridized in 24 μl 50% formamid, 6×SSC, 0.5% SDS. 5×Denhardt's with 2.4 μg salmon sperm DNA, 10 μg poly dA at 42° C. (room temperature for test oligomer hybridization) for 16 hours. Following 10 min washes in 0.1×SSC, 0.1% SDS, and twice in 0.1×SSC the slide was scanned using the GMS 418 Scanner (Affymetrix).
Data Analysis. […] The median background-subtracted feature intensity was utilized for further analysis. Overall differences in the signal intensity of the two wavelengths measured on each slide (λ=532 nm and λ=635 nm) were corrected using the locally linear robust scatterplot smoother implemented in the loess function in S Plus Professional (Insightful Corporation). Predictors were generated using a symmetric distribution, span=0.75 (Venables and Ripley (1999) Modern Applied Statistics with S-Plus. Spring, N.Y. Measurement precision was estimated by determining the median coefficient of variation within slides for each gene:
[formula] Genes were selected according to the following algorithm (i) ±fold-change of >1.3; (ii) |t|>3; (iii) signal intensity in at least one channel >1% of the median signal intensity value; (iv) criteria i-iii observed in at least 2 of 3 experiments.
Microarray Identification of Genes Activated by GnRH is LβT2 Cells. The response to GnRH was studied in the GnRHR-expressing LβT2 gonadotrope cell line (Turgeon et al. (1996) Mol Endocrinol. 10:439-450). Three separate experiments comparing the effects of 1 hour exposure to GnRH or vehicle were performed. […]

[1] = 100 nM GnRH vs vehicle, 1 hour, LβT2 cells
[2] = two clones spotted in different locations on the arrays, 100 nM GnRH, 1 hour

## gonadotropin releasing hormone [GnRH]
[1]
  1κB fold-change, Microarray (n = 3): 1.7 ± 0.2 fold
  Egr1 fold-change, Microarray (n = 3): 12.9 ± 3.8 fold
  Egr2 fold-change, Microarray (n = 3): 1.5 ± 0.2 fold
  Gem fold-change, Microarray (n = 3): 1.7 ± 0.2 fold
  HSP30 fold-change, Microarray (n = 3): 1.3 ± 0.2 fold
  Klf4 fold-change, Microarray (n = 3): 1.7 ± 0.3 fold
  Klf-like EST fold-change, Microarray (n = 3): 2.3 ± 0.3 fold
  LRG21 fold-change, Microarray (n = 3): 31.2 ± 16.6 fold
  MKP1/3CH134 fold-change, Microarray (n = 3): 1.4 ± 0.1 fold
  NMDMC fold-change, Microarray (n = 3): 1.4 ± 0.3 fold
  Nr4a1/nur77 fold-change, Microarray (n = 3): 5.9 ± 1.5 fold
  Nrf2 fold-change, Microarray (n = 3): 1.3 ± 0.2 fold
  PRL1 fold-change, Microarray (n = 3): 2.0 ± 0.4 fold
  Period1 fold-change, Microarray (n = 3): 2.1 ± 0.1 fold
  Rgs2 fold-change, Microarray (n = 3): 4.0 ± 1.3 fold
  TSC22 fold-change, Microarray (n = 3): 3.4 ± 0.4 fold
  c-fos fold-change, Microarray (n = 3): 12.5 ± 4.0 fold
  c-jun fold-change, Microarray (n = 3): 3.8 ± 0.6 fold
  gly96 fold-change, Microarray (n = 3): 1.7 ± 0.6 fold
  ler2/Pip92 fold-change, Microarray (n = 3): 5.2 ± 1.2 fold
  transgelin fold-change, Microarray (n = 3): 1.4 ± 0.1 fold
  β-actin fold-change, Microarray (n = 3): 2.0 ± 0.5 fold
  γ-actin fold-change, Microarray (n = 3): 2.7 ± 0.3 fold
Cells exposed to GnRH for 3 hours and 6 hours
  Time course of induced genes, FMA: nearly all of the induced genes return to baseline levels of expression by 3 hours
[2]
  Nrf2 degree of change on microarray, two different clones: 1.3±0.2 and 1.3±0.1
  PRL1 degree of change on microarray, two different clones: 2.0±0.4 and 1.5±0.4
  Rgs2 degree of change on microarray, two different clones: 4.0±1.3 and 2.9±1.2
  TSC22 degree of change on microarray, two different clones: 3.4±0.4 and 3.3±0.6
